Data reported in article PMC10755004, “Pyrimidine salvage in Toxoplasma gondii as a target for new treatment” (Frontiers in Cellular and Infection Microbiology, 2023).
Where “and” joins values, the source holds several entries; their conditions need not be identical. Equal values may be shown once. Read-outs that look alike come from different tables or passages of the source.

Experiments:
[1] = system: T. gondii intracellular tachyzoites; experiment: Drug sensitivity assay for T. gondii tachyzoites in HFF cells (RFP fluorescence, 6 days); type: cell-based, Toxoplasma gondii; details: for effect on intracellular tachyzoites: concentrations up to 25 µM; for in vitro activity compared with sulfadiazine (in words): EC50 against T. gondii vs sulfadiazine; for EC50: intracellular tachyzoites in HFF, 6 days
Description: The in vitro inhibitory effects of antimicrobial nucleoside agents on T. gondii growth were determined in HFF cell cultures using 96-well black plates (Optical-Bottom Plates with Polymer Base, Thermo Fisher Scientific). 150 – 200 µL of HFF cells were seeded into 96-well black plates and incubated for 3-5 days at 37°C under 5% CO2 in a humidified incubator. Once the HFF cells became confluent the supernatant was discarded and replaced with 100 µL fresh DMEMc media. Sulfadiazine (positive control) and the nucleoside compounds were already dissolved in DMSO at known concentrations, usually prepared as 10 mM. After that, every compound was diluted in DMEMc at 4x final concentration. The assays were performed in duplicate or triplicate throughout. 100 µL of 4x compounds were transferred to the wells of the first column of a 96-well black plate of which each well contained HFF cells in 100 µL DMEMc. The compounds were mixed, and 100 µL was transferred using the multichannel pipette to the next column before being transferred to each column through the entire plate over one row, leaving the last column as a negative control without drug. After that, naturally, freshly egressed parasites were collected and filtered through a 3-µm filter (Sigma-Aldrich). ~1000 parasites/well were added in 100 µL DMEMc (giving a total volume of 200 µL/well) and incubated for 6 days at a 37°C/5% CO2 in a humidified incubator. On day 6, a PHERAstar plate reader (BMG Labtech, Germany) was used to read the fluorescence intensity at 540 nm for excitation and 590 nm for emission. The EC50 values and fluorescence data were determined and plotted by using Prism 8.0 (GraphPad). Each experiment was independently performed 3-5 times.
Most published protocols for in vitro drug screening against T. gondii use the MTT assay, which is a colorimetric assay that relies on tetrazolium salt and is used for accessing cell viability, cell proliferation and cytotoxicity for the host cells ([Jin et al., 2012]). Our protocol is an adaptation from a method that was used to evaluate antiretroviral compounds against T. gondii tachyzoites ([Wang et al., 2019]). These authors added 5×10^4 cells/mL freshly egressed tachyzoites to each well of a 96-well plate with an HFF cell monolayer, followed by incubation for 4 h to allow the cells to invade the host cells; the medium containing extracellular tachyzoites was then removed and fresh medium containing the desired concentration of the antiretroviral drugs was added to the wells and incubated for 5 days at 37°C and 5% CO2 in a humidified incubator ([Wang et al., 2019]). In our adaptation of this protocol, we aimed to eliminate the step of wash/removal of tachyzoites, in order to increase reproducibility. We thus prepared the serial dilutions of compounds in the 96-well plates containing the HFF monolayer cells and then added the lower number of 1×10^4 cells/mL freshly lysed tachyzoites to the 96-well plates, already containing both the HFF monolayer cells and tested compounds. The plates were then incubated for 6 days at 37°C and 5% CO2 in a humidified incubator. A major advantage that was introduced was detection of T. gondii in the wells, which was achieved by measuring fluorescence of the RFP-expressing parasites.

[2] = target: uridine/uracil transporter 1 (TgUUT1); experiment: Transport of 0.1 µM [3H]-uridine into extracellular T. gondii tachyzoites (oil-stop technique); type: cell-based, Toxoplasma gondii; details: for Ki: inhibition of 0.1 µM [3H]-uridine transport; for δ(ΔG^0): loss of binding energy compared with uridine; for inhibition of [3H]-uridine uptake: 0.1 µM [3H]-uridine, 5 min; for Gibbs free energy of binding: from Km/Ki on [3H]-uridine transport; for Km: 0.1 µM label, tachyzoites, n=3
[3] = system: T. gondii; experiment: Mouse model of acute toxoplasmosis, parasite burden in lung by qPCR; type: in vivo, C57BL/6J mice; details: pyrimidines 25 mg/kg i.p., sulfadiazine oral in water, lung parasite burden day 10
[4] = system: HFF cells; experiment: cells; details: Homo sapiens, 144 h
[5] = system: HFF cells; details: for S.I.: selectivity index, HFF cytocidal EC50/tachyzoite EC50; for EC50: read-out: HFF ctotoxicity EC50 Cytostatic, uninfected HFF, 6 days
[6] = system: uridine/uracil transporter 1 (TgUUT1); experiment: Transport of 0.1 µM [3H]-uracil into extracellular T. gondii tachyzoites (oil-stop technique); type: cell-based, Toxoplasma gondii; details: for Ki: inhibition of 0.1 µM [3H]-uracil transport
[7] = system: TgAT1; design: method as in Chiang et al., 1999; details: TgAT1 expressed in X. laevis oocytes; ref Chiang et al., 1999; cited from earlier work
[8] = system: T. gondii tachyzoites; experiment: Uptake of tritiated pyrimidines by T. gondii tachyzoites over time; type: cell-based, Toxoplasma gondii
[9] = system: T. gondii; design: method as in el Kouni et al., 1999; details: ref el Kouni et al., 1999; read-out: EC50 against T. gondii; cited from earlier work
[10] = read-out: HFF ctotoxicity EC50 Cytostatic
[11] = read-out: HFF ctotoxicity EC50 Cytostatic (second column)

O=c1ccn([C@H]2CC[C@@H](CO)O2)c(=O)[nH]1 [2’,3’-dideoxyuridine]
effect on intracellular tachyzoites [1]: no effect

O=c1ccn([C@H]2C[C@H](O)[C@@H](CO)O2)c(=O)[nH]1 [2’-Deoxyuridine]
Ki [2]: 134 ± 31 µM | δ(ΔG^0) [2]: 2.15 kcal/mol and 2.17 kcal/mol | effect on intracellular tachyzoites [1]: no effect

Cc1cn([C@H]2CC[C@@H](CO)O2)c(=O)[nH]c1=O [3’-deoxythymidine]
effect on intracellular tachyzoites [1]: no effect

O=c1[nH]c(=O)n([C@H]2C[C@H](O)[C@@H](CO)O2)cc1F [5-F,2’dUrd, 5-fluoro-2’deoxyuridine]
efficacy against acute toxoplasmosis, comparison between treatments [3]: significantly less effective | efficacy against acute toxoplasmosis, comparison between treatments ([3]; listed as 5F,2’-deoxyuridine): similarly effective as sulfadiazine | EC50 [4, 10]: 0.19 ± 0.05 µM | EC50 [4, 11]: 1480 ± 510 µM | S.I. [5]: 2205 | in vitro activity compared with sulfadiazine (in words) [1]: well below | EC50 ([1]; Toxoplasma gondii, 144 h): 0.67 ± 0.07 µM

O=c1[nH]cc(F)c(=O)[nH]1 [5-FU, 5-fluorouracil]
efficacy against acute toxoplasmosis, comparison between treatments [3]: not significantly different from sulfadiazine | efficacy against acute toxoplasmosis, comparison between treatments ([3]; listed as 5F-uracil): similarly effective as sulfadiazine | EC50 [4, 10]: 2.49 ± 0.43 µM | EC50 [4, 11]: 3070 ± 340 µM | Ki [2]: 5.24 ± 0.72 µM | S.I. [5]: 2720 | δ(ΔG^0) ([6]; 5-FU Ki compared to uracil Km): 0.717 kcal/mol | Ki [6]: 6.8 ± 2.12 µM | in vitro activity compared with sulfadiazine (in words) [1]: well below | EC50 ([1]; Toxoplasma gondii, 144 h): 1.13 ± 0.16 µM

O=c1[nH]c(=O)n([C@@H]2O[C@H](CO)[C@@H](O)[C@H]2O)cc1F [5-FUrd, 5-Flourouridine]
EC50 ([5]; first (low concentration) phase, growth inhibition): 0.11 ± 0.1 µM | EC50 ([5]; second phase (cytocidal per footnote and text)): 20.4 ± 1 µM | S.I. [5]: 45 | in vitro activity compared with sulfadiazine (in words) [1]: well below | EC50 [1]: 0.45 ± 0.02 µM

Cc1cn([C@@H]2O[C@H](CO)[C@@H](O)[C@H]2O)c(=O)[nH]c1=O [5-Methyluridine]
Ki [2]: 2380 ± 774 µM

C[C@H]1O[C@@H](n2ccc(=O)[nH]c2=O)[C@H](O)[C@@H]1O [5’-deoxyuridine]
effect on intracellular tachyzoites [1]: no effect

Nc1ncnc2c1ncn2[C@@H]1O[C@H](CO)[C@@H](O)[C@H]1O [Adenosine]
inhibition of TgUUT1 uridine uptake ([2]; 2500-fold excess of unlabeled inhibitor): ~ 70% | Ki [2]: 112 ± 6 µM | Km [7]: 114 µM

Nc1ncnc2c1ncn2[C@@H]1O[C@H](CO)[C@@H](O)[C@@H]1O [Ara-A, adenine arabinoside]
EC50 [1]: 11.4 ± 1.8 µM

Nc1ccn([C@@H]2O[C@H](CO)[C@@H](O)[C@H]2O)c(=O)n1 [Cytidine]
Rate of uptake ([8]; 0.20 µM radiolabel): 0.0029 ± 0.0004 pmol(10^7 cells)^-1min^-1 | Rate of uptake ([8]; 0.20 µM radiolabel, listed as [^3H]-cytidine): 0.0029 pmol(10^7 cells)^-1min^-1

O=c1[nH]cnc2c1ncn2[C@@H]1O[C@H](CO)[C@@H](O)[C@H]1O [Inosine]
Ki [2]: 28.2 ± 4.1 µM

O=[N+]([O-])c1ccc(CSc2ncnc3c2ncn3[C@@H]2O[C@H](CO)[C@@H](O)[C@H]2O)cc1 [NBMPR]
EC50 [1]: 3.19 ± 0.14 µM | EC50 [9]: 10.2 µM

CCc1nc(N)nc(N)c1-c1ccc(Cl)cc1 [Pyrimethamine]
EC50 ([1]; Toxoplasma gondii, 144 h): 16.2 µM

Nc1ccc(S(=O)(=O)Nc2ncccn2)cc1 [Sulfadiazine]
EC50 ([1]; Toxoplasma gondii, 144 h): 12.4 ± 1.08 µM

Cc1cn([C@H]2C[C@H](O)[C@@H](CO)O2)c(=O)[nH]c1=O [Thymidine]
inhibition of [3H]-uridine uptake ([2]; 250 µM inhibitor): somewhat inhibited | Gibbs free energy of binding [2]: -4.09 kcal/mol | Ki [2]: 1010 ± 145 µM | δ(ΔG^0) [2]: 3.37 kcal/mol and 3.39 kcal/mol | inhibition of [3H]-thymidine uptake ([8]; 0.25 µM [3H]-thymidine over 10 min, 1 mM unlabeled inhibitor): did not significantly inhibit | Rate of uptake ([8]; 0.25 µM radiolabel, over 10 min): 0.00071 ± 0.00016 pmol(10^7 cells)^-1min^-1

O=c1cc[nH]c(=O)[nH]1 [Uracil]
inhibition of [3H]-uridine uptake ([2]; 250 µM inhibitor): 80% | Ki [2]: 1.15 ± 0.07 µM | Vmax ([6]; [3H]-uracil as substrate): 0.166 pmol(10^7 cells)^-1 min^-1 | Km ([6]; [3H]-uracil as substrate, 0.1 µM label, tachyzoites, n=3): 2.05 ± 0.4 µM | Rate of uptake ([8]; 0.10 µM radiolabel): 0.026 ± 0.0014 pmol(10^7 cells)^-1min^-1 | Rate of uptake ([8]; 0.10 µM radiolabel, listed as [^3H]-uracil): 0.026 pmol(10^7 cells)^-1min^-1

O=c1ccn([C@@H]2O[C@H](CO)[C@@H](O)[C@H]2O)c(=O)[nH]1 [Uridine]
inhibition of [3H]-uridine uptake ([2]; 1 mM unlabeled inhibitor): 90% | Vmax ([2]; [3H]-uridine as substrate): 1.21 ± 0.24 pmol(10^7 cells)^-1 min^-1 | Km ([2]; [3H]-uridine as substrate, listed as [^3H]-uridine): 3.34 ± 0.82 µM | Km ([2]; [3H]-uridine as substrate, listed as uridine): 3.3 ± 0.8 µM | Gibbs free energy of binding [2]: -7.46 kcal/mol | Ki [6]: 2.44 ± 0.59 µM | Rate of uptake ([8]; 0.10 µM radiolabel): 0.011 ± 0.0006 pmol(10^7 cells)^-1min^-1 | inhibition of [3H]-cytidine uptake ([8]; 0.2 µM [3H]-cytidine, 1 mM unlabeled inhibitor): fully inhibited | inhibition of [3H]-thymidine uptake ([8]; 0.25 µM [3H]-thymidine, 250 µM inhibitor): did not inhibit | inhibition at 250 µM ([8]; Toxoplasma gondii, [3H]-cytidine, 250 µM inhibitor): 100%
